Some test systems named below: HOP-62 NSCLC; SF-539 CNS; OVCAR-3 ovarian; SW-620 colon; HCT-15 colon; NCI-H226 lung; A549 NSCLC; UACC-62 melanoma; KM12 colon; HS 578T breast.
Assay in all cases: DTP human tumour cell line panel, 48 h

SMILES strings stand for the structures.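 Exposure lasted 48 hours, with cells grown in 96-well plates and compounds tested at five concentrations. Here, GI50 denotes the concentration required for 50% inhibition of growth. Definition used: TGI = concentration required for complete inhibition of growth.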

As usually defined, the TGI is the concentration giving total growth inhibition. The term GI50 denotes the concentration giving 50% growth inhibition.

On to `CCc1c(Cl)c(C)cc(O)c1Cl`, for which the total growth inhibition concentration (TGI) in the assay with HOP-62 NSCLC was > 100 µM; in the assay with SF-539 CNS, 78.9 µM; in the assay with OVCAR-3 ovarian, > 100 µM; in the assay on SW-620 colon, 47.9 µM; in the assay with HCT-15 colon, 38.9 µM; in the assay with NCI-H226 lung it was 63.2 µM. Further, the TGI in the assay on A549 NSCLC was > 100 µM; in the assay on UACC-62 melanoma, > 100 µM; with KM12 colon, > 100 µM; with HS 578T breast, 99.7 µM.
On to `O=C1c2cc3c(cc2-c2c1c1cc(Cl)c(Cl)cc1c(=O)n2C[C@H](O)CO)OCO3`, for which the GI50 is < 0.01 µM in the assay with HOP-62 NSCLC; < 0.01 µM with SF-539 CNS; 0.0157 µM with OVCAR-3 ovarian; < 0.01 µM with SW-620 colon; 0.0127 µM with HCT-15 colon; < 0.01 µM in the assay on NCI-H226 lung. Also, the GI50 was < 0.01 µM in the assay with A549 NSCLC, < 0.01 µM with UACC-62 melanoma and 0.291 µM in the assay with HS 578T breast. The TGI with HOP-62 NSCLC is 0.0326 µM; with SF-539 CNS, 0.0175 µM; in the assay on OVCAR-3 ovarian, 0.0769 µM; in the assay on SW-620 colon, 2.08 µM; in the assay with HCT-15 colon, 14.3 µM; in the assay on NCI-H226 lung, 0.0248 µM. Moreover, the TGI with A549 NSCLC turned out to be 0.253 µM; with UACC-62 melanoma it was 0.0126 µM; in the assay on HS 578T breast, 32.9 µM.
In the case of `Cn1c(=O)c(Oc2ccc(F)cc2)cc2cnc(NC3CCOCC3)nc21`, the GI50 with HOP-62 NSCLC was > 25 µM; in the assay with SF-539 CNS it was > 25 µM; with OVCAR-3 ovarian it was > 25 µM; in the assay with SW-620 colon, > 25 µM; in the assay on HCT-15 colon, > 25 µM; in the assay on NCI-H226 lung it was > 17.1 µM. Moreover, the GI50 with A549 NSCLC, with UACC-62 melanoma, with KM12 colon and in the assay on HS 578T breast was > 25 µM throughout. The TGI with HOP-62 NSCLC, with SF-539 CNS, with OVCAR-3 ovarian, in the assay on SW-620 colon, in the assay with HCT-15 colon and with NCI-H226 lung was > 25 µM in each case. The TGI with A549 NSCLC, in the assay with UACC-62 melanoma, in the assay with KM12 colon and in the assay on HS 578T breast was > 25 µM each time.
Regarding `CCOC(=O)/C=C/c1ccc(C#Cc2ccccc2)cc1`, the GI50 with HOP-62 NSCLC was > 100 µM; with SF-539 CNS it was 1.54 µM; in the assay on OVCAR-3 ovarian, > 100 µM; in the assay with SW-620 colon, > 100 µM; in the assay with HCT-15 colon, > 100 µM; with NCI-H226 lung, > 100 µM. Moreover, the GI50 was 72.2 µM with A549 NSCLC, 83.5 µM with UACC-62 melanoma, > 100 µM in the assay with KM12 colon and > 100 µM in the assay with HS 578T breast. For the same compound, the TGI with HOP-62 NSCLC, with SF-539 CNS, in the assay with OVCAR-3 ovarian, in the assay on SW-620 colon, in the assay on HCT-15 colon and in the assay on NCI-H226 lung was > 100 µM throughout. For the same compound, the TGI in the assay with A549 NSCLC, with UACC-62 melanoma, in the assay on KM12 colon and in the assay on HS 578T breast was > 100 µM each time.
As to `O=C(CNS(=O)(=O)Cc1ccccc1)NNc1ccccc1`, the total growth inhibition concentration (TGI) in the assay with HOP-62 NSCLC was > 100 µM; in the assay with SF-539 CNS, > 25.6 µM; in the assay on OVCAR-3 ovarian it was > 100 µM; in the assay with SW-620 colon, > 100 µM; in the assay with HCT-15 colon it was > 100 µM; in the assay with NCI-H226 lung it was > 100 µM. For the same compound, the total growth inhibition concentration (TGI) was > 100 µM in the assay with A549 NSCLC, > 25.6 µM with UACC-62 melanoma, > 100 µM in the assay with KM12 colon and > 100 µM with HS 578T breast.
As to `CCOC(=O)c1c(-c2ccc(OC)cc2)c(C#N)c2c(C#N)c(N)nn2c1N`, the GI50 with HOP-62 NSCLC is 3.32 µM; with SF-539 CNS it was 2.39 µM; with OVCAR-3 ovarian it was 3.28 µM; in the assay on SW-620 colon, 5.62 µM; in the assay on HCT-15 colon, 2.95 µM; in the assay with NCI-H226 lung it was 3.62 µM. In addition, the GI50 in the assay on A549 NSCLC was 5.06 µM; with UACC-62 melanoma, 2.47 µM; in the assay on KM12 colon, 4.01 µM; in the assay with HS 578T breast, 2.96 µM. For the same compound, the TGI is 22.1 µM in the assay with HOP-62 NSCLC; 8.6 µM in the assay on SF-539 CNS; 14.2 µM with OVCAR-3 ovarian; > 100 µM in the assay with SW-620 colon; > 100 µM in the assay with HCT-15 colon; > 100 µM in the assay on NCI-H226 lung. In addition, the TGI was > 100 µM in the assay with A549 NSCLC, 15.2 µM in the assay with UACC-62 melanoma, > 100 µM in the assay on KM12 colon and 27.6 µM with HS 578T breast.
On to `CCN(Cc1ccc(F)cc1)c1ccc(CO)c(Br)c1`, for which the GI50 in the assay with HOP-62 NSCLC is 0.646 µM; in the assay on SF-539 CNS, 15 µM; in the assay on OVCAR-3 ovarian it was 0.238 µM; in the assay with SW-620 colon, 0.475 µM; with HCT-15 colon it was 5.8 µM; with NCI-H226 lung, 0.0987 µM. For the same compound, the GI50 in the assay with A549 NSCLC is 0.614 µM; in the assay on UACC-62 melanoma it was 0.0522 µM; with KM12 colon it was 23.4 µM; in the assay with HS 578T breast, 13.5 µM. Moreover, the TGI in the assay with HOP-62 NSCLC is 20.2 µM; in the assay on SF-539 CNS it was 29.4 µM; in the assay on OVCAR-3 ovarian it was 0.868 µM; with SW-620 colon, > 41.2 µM; in the assay on HCT-15 colon it was > 52.6 µM; with NCI-H226 lung it was 0.231 µM. In addition, the TGI in the assay with A549 NSCLC worked out at 21.3 µM; in the assay on UACC-62 melanoma, 0.342 µM; in the assay with KM12 colon, 63.1 µM; in the assay on HS 578T breast it was 46.1 µM.
As to `O=C1c2cccc3cccc(c23)C(=O)N1CCCCCN1CCN(CCCCCOc2ccc(-c3nc4ccc(N5CCOCC5)cc4[nH]3)cc2)CC1`, the GI50 is 35.7 µM in the assay with HOP-62 NSCLC; 10.6 µM with SF-539 CNS; 6.07 µM in the assay on OVCAR-3 ovarian; 1.83 µM with SW-620 colon; 2.62 µM in the assay with HCT-15 colon; 7.24 µM in the assay with NCI-H226 lung. The GI50 with A549 NSCLC is 2.22 µM; in the assay on UACC-62 melanoma, 16.1 µM; with KM12 colon it was 2.15 µM; with HS 578T breast it was 21.8 µM. Moreover, the TGI with HOP-62 NSCLC was found to be 79.2 µM; in the assay with SF-539 CNS, 29 µM; with OVCAR-3 ovarian it was 11.2 µM; with SW-620 colon, 4.21 µM; in the assay on HCT-15 colon, 8.63 µM; with NCI-H226 lung it was 30.2 µM. The TGI in the assay on A549 NSCLC was 5.26 µM; in the assay with UACC-62 melanoma, > 57.1 µM; in the assay on KM12 colon, 4.29 µM; with HS 578T breast, 45.4 µM.
